According to US9234005B2 (priority 2011, dated 2016):
Like-named read-outs stand apart in the source and are kept apart here. No end group written: not given here.

Experiments:
[1] = target: T1, PTPN4-PDZ (Homo sapiens, UniProt P29074, S499G); experiment: biochemical; assay type: binding; parameters: PTPN4-PDZ (residues G499-N604, G499 being a non-native residue due to the TEV cleavage site); GST (N, cleaved yes); made in house; host or cells: Escherichia coli BL21 (DE3) star
T1 sequence (P29074 499-604 S499G): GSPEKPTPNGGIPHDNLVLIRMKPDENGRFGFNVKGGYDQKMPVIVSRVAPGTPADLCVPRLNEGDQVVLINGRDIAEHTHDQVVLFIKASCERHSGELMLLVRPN

[2] = test system: U373MG astrocytoma cells; assay type: cell-based, human
[3] = target: T1, PTPN4-PDZ; experiment: biochemical
[4] = test system: neuroblastoma cell line SK-N-SH; conditions: cited from earlier work
[5] = Kd for PTPN4-PDZ (dissociation constant, text)

Row | Substance | cell death (% of dead cells among peptide loaded cells) [2] | Kd ([1]; Kd, affinity for PTPN4-PDZ) [µM] | Kd [3] [µM] | other results
1 | LNLGNDPDRGTSI [GluD2-13, LNLGNDPDRGTSI] | – | – | – | Kd [1, 5]: 128 µM
2 | SNRRVYKKMPSIESDV-OH [GluN2A-16, SNRRVYKKMPSIESDV] | 29% | – | – | Kd [1]: 42 µM; fold increase in affinity for PTPN4-PDZ compared to Cyto13-att (Cyto-att) [1]: four-fold increase; increase of cell death compared to Cyto13-att [2]: two-fold increase
3 | SWARVSKETPL [SEQ ID NO: 4, SWARVSKETPL] | – | 1.58 | – | –
4 | SWEDRETEV [SEQ ID NO: 7, SWEDRETEV] | – | – | 3.88 | –
5 | SWEERETEF [SEQ ID NO: 6, SWEERETEF] | – | – | 2.52 | –
6 | SWEERETEV [SEQ ID NO: 3, SWEERETEV] | – | – | 1.35 | –
7 | SWELYKSEGDARL [DARL-13, SWELYKSEGDARL] | – | 1280 | – | –
8 | SWERRETEV [SEQ ID NO: 5, SWERRETEV] | – | – | 2 | –
9 | SWESHKSGG [Cyto9-Δ] | 7% | – | – | interaction with PTPN4-PDZ, in words [1]: does not interact with PTPN4-PDZ; induction of cell death, in words [4]: do not
10 | SWESHKSGGETRL [Cyto13-att, SWESHKSGGETRL] | more than 14% | 157 | – | induction of cell death, in words [4]: induces cell death
11 | SWESHKSGGQTRL [Cyto13-vir, SWESHKSGGQTRL] | 8% | 568 | – | fold difference in Kd, Cyto13-vir versus Cyto13-att [1]: 4 fold; ΔΔG0=RT ln(Kd(Cyto13-vir)/Kd(Cyto13-att)) [1]: 0.76 kcal·mol^−1; Kd [1, 5]: 560 µM; induction of cell death, in words [4]: do not
12 | SWESYRSGGEIRL [EIRL-13, SWESYRSGGEIRL] | – | 1170 | – | interaction with PTPN4-PDZ, in words [1]: low affinity
13 | shepherdin | – | – | – | glioblastoma death, in words [2]: in a range similar to those obtained with Cyto13-att
